According to article PMC6150229, “Simultaneous Determination of Twenty-Five Compounds in Rat Plasma Using Ultra-High Performance Liquid Chromatography-Polarity Switching Tandem Mass Spectrometry and Its Application to a Pharmacokinetic Study” (Molecules : A Journal of Synthetic Chemistry and Natural …, 2017):
Read-outs that look alike come from different tables or passages of the source.

What was measured:
in vivo = details: male, Sprague-Dawley, rat, po, 8 g/kg; for AUC(0-t): AUC0–t; for AUC(0-inf): AUC0–∞
[1] = male, Sprague-Dawley, rat, in vivo, po, 8 g/kg
[2] = Pharmacokinetic study in sham and myocardial ischemia model rats after a single oral dose of QSKL (UHPLC-psMS/MS of plasma, non-compartmental analysis); details: QSKL-treated plasma samples, sham and model rats, single oral dose 8.0 g/kg
[3] = model group (MG, myocardial ischemia) rats, oral administration of QSKL, plasma, mean ± SD, n = 6
[4] = sham group (SG) rats, oral administration of QSKL, plasma, mean ± SD, n = 6
[5] = t1/2, model group (MG, myocardial ischemia) rats, oral administration of QSKL, plasma, mean ± SD, n = 6
[6] = t1/2, sham group (SG) rats, oral administration of QSKL, plasma, mean ± SD, n = 6

Row | SMILES | AUC(0-t) (in vivo) | AUC(0-inf) (in vivo) | Cmax (in vivo) | MRT (in vivo) | Tmax (in vivo) | half-life (in vivo; t1/2) | AUC0–t [1] | AUC0–∞ [1] | MRT [1] | further results
1 | Cc1coc2c1C(=O)C(=O)c1c-2ccc2c(C)cccc12 [tanshinone I] | 3.62 ± 0.763 ng·h/mL | 5.58 ± 2.56 ng·h/mL | 0.297 ± 0.115 ng/mL | 18.2 ± 2.76 h | 8 h | 642 ± 72 min | 4.54 ± 1.58 ng·h/mL | – | – | –
2 | O=C1C[C@@H](c2ccc(O[C@@H]3O[C@H](CO)[C@@H](O)[C@H](O)[C@H]3O)cc2)Oc2cc(O)ccc21 [liquiritin] | 6.01 ± 1.52 ng·h/mL | 7.37 ± 2.08 ng·h/mL | – | 10.3 ± 2.3 h | 0.29 ± 0.17 h | 346 ± 21.6 min | 7.66 ± 2.60 ng·h/mL | 9.14 ± 4.02 ng·h/mL | 10.2 ± 5.77 h | –
3 | C=C[C@H]1[C@H](O[C@@H]2O[C@H](CO)[C@@H](O)[C@H](O)[C@H]2O)OC=C2C(=O)OCC[C@H]21 [sweroside] | 210 ± 75.7 ng·h/mL | 294 ± 94.2 ng·h/mL | 28.9 ± 14.3 ng/mL | – | 1.58 ± 1.31 h | – | 247 ± 58.0 ng·h/mL | 281 ± 53.4 ng·h/mL | – | –
4 | COCC12CCC(OC)C34C5CC6(O)C(OC)C(O)C(O)(C5C6OC(=O)c5ccccc5)C(C(OC)C13)C4N(C)C2 (centres unmarked) [benzoylhypaconine] | – | – | – | – | – | – | – | – | – | distribution in rat plasma (quantifiable or not) [2]: quantifiable in most samples; AUC(0-t) (in vivo; [3]): 0.926 ± 0.279 ng·h/mL; AUC(0-t) (in vivo; [4]): 0.985 ± 0.167 ng·h/mL; AUC(0-inf) (in vivo; [3]): 1.66 ± 0.331 ng·h/mL; AUC(0-inf) (in vivo; [4]): 1.78 ± 0.905 ng·h/mL; Cmax (in vivo; [3]): 0.466 ± 0.302 ng/mL; Cmax (in vivo; [4]): 0.284 ± 0.209 ng/mL; MRT (in vivo; [3]): 23.6 ± 7.39 h; MRT (in vivo; [4]): 22.7 ± 14.9 h; Tmax (in vivo; [3]): 0.43 ± 0.36 h; Tmax (in vivo; [4]): 0.48 ± 0.33 h; half-life (in vivo; [5]): 978 ± 328 min; half-life (in vivo; [6]): 936 ± 544 min
5 | O=C1C[C@@H](c2ccc(O)cc2)Oc2cc(O)ccc21 [liquiritigenin] | 2.11 ± 1.73 ng·h/mL | 2.22 ± 1.98 ng·h/mL | 0.347 ± 0.276 ng/mL | 8.48 ± 1.07 h | – | 234 ± 61.8 min | 2.53 ± 0.662 ng·h/mL | 2.81 ± 0.98 ng·h/mL | 9.83 ± 4.37 h | –
6 | Cc1cccc2c3c(ccc12)C1=C(C(=O)C3=O)[C@@H](C)CO1 [dihydrotanshinone I] | 4.99 ± 2.18 ng·h/mL | 4.47 ± 0.864 ng·h/mL | 0.618 ± 0.25 ng/mL | 8.22 ± 1.2 h | 8 h | 234 ± 51.5 min | 4.67 ± 2.23 ng·h/mL | 5.98 ± 5.34 ng·h/mL | 14.8 ± 9.29 h | –
7 | C[C@H]1COC2=C1C(=O)C(=O)c1c2ccc2c1CCCC2(C)C [cryptotanshinone] | 8.77 ± 2.26 ng·h/mL | 12 ± 5.01 ng·h/mL | 0.898 ± 0.29 ng/mL | 19.3 ± 6.01 h | – | 732 ± 312 min | 10.2 ± 2.21 ng·h/mL | 16.4 ± 8.86 ng·h/mL | 25.6 ± 20.1 h | –
8 | COC[C@@]12CC[C@H](OC)[C@]34C(C([C@H](OC)[C@H]13)[C@]1(OC(C)=O)[C@H]3[C@@H](OC(=O)c5ccccc5)[C@](O)(C[C@H]34)[C@@H](OC)[C@@H]1O)N(C)C2 [hypaconitine] | – | – | – | – | – | – | – | – | – | distribution in rat plasma (quantifiable or not) [2]: quantifiable in most samples; AUC(0-t) (in vivo; [3]): 0.567 ± 0.26 ng·h/mL; AUC(0-t) (in vivo; [4]): 0.824 ± 0.249 ng·h/mL; AUC(0-inf) (in vivo; [3]): 0.552 ± 0.148 ng·h/mL; AUC(0-inf) (in vivo; [4]): 0.967 ± 0.303 ng·h/mL; Cmax (in vivo; [3]): 0.156 ± 0.134 ng/mL; Cmax (in vivo; [4]): 0.101 ± 0.0328 ng/mL; MRT (in vivo; [3]): 11.9 ± 3.73 h; MRT (in vivo; [4]): 11.7 ± 2.83 h; Tmax (in vivo; [3]): 1.54 ± 0.71 h; Tmax (in vivo; [4]): 2.08 ± 1.6 h; half-life (in vivo; [5]): 447 ± 70.8 min; half-life (in vivo; [6]): 520 ± 103 min
9 | O=c1cc(-c2ccc(O)c(O)c2)oc2cc(O[C@@H]3O[C@H](CO)[C@@H](O)[C@H](O)[C@H]3O)cc(O)c12 [luteoloside] | 0.406 ± 0.055 ng·h/mL | 1.06 ± 0.47 ng·h/mL | – | 50.5 ± 26.9 h | 0.5 ± 0.33 h | 2190 ± 1010 min | 0.493 ± 0.147 ng·h/mL | 0.869 ± 0.272 ng·h/mL | 29.4 ± 17.5 h | –
